Data on 20 compounds can be found in US4798807A, “Monoclonal antibodies and method for detecting dioxins and dibenzofurans” (priority 1986, dated 1989).

One assay concerns the target monoclonal antibody DD-6. Description: Competition ELISA with monoclonal antibody DD-6. It counts as binding, Biozzi mice. To be noted: competitor vs monoclonal antibody DD-6; plate coated with A-triCDD-RSA. The procedure:
(§1) In this case the hybridomas were then screened for their ability to distinguish A-triCDD-BSA and A-triCDD-RSA from BSA and RSA. On the basis of this initial screen about 25 stable, antibody-producing colonies were isolated, subcloned, and frozen. The remaining clones were again screened for their abilities to recognize free TCDD in suspension. Experimentally, on the order of 10-100 nanograms of TCDD in hexane was dried, 0.5 ml of saline with BSA (1 mg/ml) was added and sonificated for 2 hrs. […] Identical procedures were followed for other dioxin isomers. A dilution series in microtiter plate wells was then made with the suspended TCDD, antibody adde, and the competition ELISA completed. Competition ELISA test procedures are discussed in detail in the following reference: Butt, W. R. (1984) "Practical Immunoassay: The State of the Art", Marcel Dekker, Inc., N.Y., N.Y.
(§2) A large part of the success that we have had in characterizing the binding specificities of our monoclonal antibodies comes from having developed a reliable competition ELISA protocol. Our preferred assay starts from stock solutions at 10 ppm in hexane of the various compounds listed in Table I. 10 μl of hexane solution is aliquoted into a small vial, evaporated under a stream of nitrogen gas, and 500 μl of a 1 mg/ml solution of BSA in phosphate buffered saline with 0.1% BSA is added. The vial is capped and placed in an ultrasonic cleaning waterbath for two hours. Two hours of sonification gives a more reproducible assay than does an hour. During the sonification, the hexane appears to evaporate completely, and one is left with an aqueous solution containing the dioxin. Microtiter plates coated with A-triCDD-RSA are blocked with a three percent solution of ovalbumin and a two-fold dilution series of sonificated dioxin-BSA is then made, covering the range 100 ppb-0.1 ppb. In each well of the plate 100 μl of the sonificated dioxin-BSA solution is mixed with n equal volume of antibody. The antibody partitions between the dioxin adsorbed to the BSA, and the A-tri-CDD-RSA on the plate.
(§3) A-TriCDD-RSA was adsorbed onto the surface of the wells of a microtiter plate. The various competitors listed were suspended in saline containing bovine serum albumin (BSA). These solutions were made by sonificating 10 μl of dioxin solution in hexane with 500 μl of saline-BSA. A dilution series of these dioxin-BSA solutions was then made covering the range of 100-0.2 ppb, and placed in the microtiter plate wells. An equal volume of DD-1 monoclonal antibody was then added, and allowed to react for 1 hour. Tne antibody binds either to the A-TriCDD-RSA on the plate or the dioxin in solution. After the hour, the solution phase is removed, the plate washed, and it is reincubated for an hour with peroxidase-conjugated goat-anti-mouse-immunoglobulins. A second washing is then done, and substrate (ABTS) added to the peroxidase. The enzyme-antibody conjugate and substrate function as a "developer", allowing the visualization of the DD-1 bound to the A-triCDD-RSA on the plate. Results are then expressed as a fraction of the response in wells with no competitor. […] At about 20 ppb of 2,3,7,8-TCDD the relative ELISA response is half of control, meaning that half the DD-1 antibody bound to the solution phase dioxin and half bound to the A-triCDD-RSA on the plate. For 1,2,3,7(8)-TCDD, 50% inhibition occurs at about 4 ppb, indicating the DD-1 prefers 1,2,3,7(8)-TCDD to 2,3,7,8-TCDD.
(§4) The FIGURE and Table II show representative competition data using several chlorinated compounds as competitors. From such data, one can determine the concentration required to inhibit antibody binding by 50% (I50). Table II lists the I50 for all compounds tested with the antibodies. In reporting these values, factors of two are about the limit of significance. […] The binding specificities of these antibodies are highly desirable, since they prefer the most toxic of the dioxin and dibenzofuran isomers.

The target of another assay is monoclonal antibody DD-1. As to the kind of experiment: Competition ELISA with monoclonal antibody DD-1. The format is binding, Biozzi mice. To be noted: for I50 (inhibits antibody binding by 50%): competitor vs monoclonal antibody DD-1, plate coated with A-triCDD-RSA. As for the experimental part:
as §1, §2, §3, §4

A further assay addresses monoclonal antibody DD-4. Description: Competition ELISA with monoclonal antibody DD-4. It counts as binding, BALB/c mice. The settings on record: competitor vs monoclonal antibody DD-4; plate coated with A-triCDD-RSA. The procedure:
as §1, §2, §3, §4

The next assay concerns the target monoclonal antibody DD-5. As to the kind of experiment: Competition ELISA with monoclonal antibody DD-5. The settings on record: competitor vs monoclonal antibody DD-5; plate coated with A-triCDD-RSA. It counts as binding, Biozzi mice. The procedure: as §1, §2, §3, §4
The next assay concerns the target monoclonal antibody DD-3. As to the kind of experiment: Competition ELISA with monoclonal antibody DD-3. It counts as binding, BALB/c mice. The settings on record: competitor vs monoclonal antibody DD-3; plate coated with A-triCDD-RSA. The procedure: as §1, §2, §3, §4

As to `ClC1=C(Cl)C2(Cl)C3C4C=CC(C4)C3C1(Cl)C2(Cl)Cl` (stereo not shown) [Aldrin], the “I50 (inhibits antibody binding by 50%)” value at monoclonal antibody DD-6, at monoclonal antibody DD-1, on monoclonal antibody DD-4, at monoclonal antibody DD-5 and at monoclonal antibody DD-3 was over 2000 ng each time.
On to `Clc1ccc(C(c2ccc(Cl)cc2)C(Cl)(Cl)Cl)cc1` [DDT], for which the “I50 (inhibits antibody binding by 50%)” value at monoclonal antibody DD-6, on monoclonal antibody DD-1, at monoclonal antibody DD-4, at monoclonal antibody DD-5 and at monoclonal antibody DD-3 was over 2000 ng in each case.
`Clc1cc(Cl)c2c(c1Cl)Oc1ccccc1O2` [1,2,4-Tri-CDD]: the “I50 (inhibits antibody binding by 50%)” value at monoclonal antibody DD-6 is over 200 ng; at monoclonal antibody DD-1, over 200 ng; at monoclonal antibody DD-4, over 200 ng; at monoclonal antibody DD-5, over 10 ng; at monoclonal antibody DD-3 it was over 200 ng.
With `Clc1ccc(-c2ccc(Cl)c(Cl)c2)cc1Cl` [3,3',4,4'-TCBP], the “I50 (inhibits antibody binding by 50%)” value on monoclonal antibody DD-6 is 100 ng; at monoclonal antibody DD-1, over 200 ng; on monoclonal antibody DD-4 it was over 200 ng; on monoclonal antibody DD-5, over 10 ng; at monoclonal antibody DD-3, over 200 ng.
`Brc1cc2c(cc1Br)Oc1cc(Br)c(Br)cc1O2` [2,3,7,8-tetra-Bromo-DD]: the “I50 (inhibits antibody binding by 50%)” value at monoclonal antibody DD-6 is given as over 2 ng; on monoclonal antibody DD-1 it was 0.05 ng; on monoclonal antibody DD-4 it was 1 ng; on monoclonal antibody DD-3 it was 1 ng.
In the case of `O=[N+]([O-])c1cc(Cl)ccc1Cl` [2,5-Dichloronitrobenzene, 2,5-Dichloronitro-benzene], the “I50 (inhibits antibody binding by 50%)” value at monoclonal antibody DD-6 was 700 ng; on monoclonal antibody DD-1 it was 90 ng; on monoclonal antibody DD-4 it was over 2000 ng; on monoclonal antibody DD-5, 2000 ng; at monoclonal antibody DD-3 it was 2000 ng.
As to `O=S1OCC2C(CO1)C1(Cl)C(Cl)=C(Cl)C2(Cl)C1(Cl)Cl` (stereo not shown) [Endosulfan], the “I50 (inhibits antibody binding by 50%)” value at monoclonal antibody DD-6, at monoclonal antibody DD-1, on monoclonal antibody DD-4, on monoclonal antibody DD-5 and on monoclonal antibody DD-3 was over 2000 ng in each case.
Take 1,2,3,7,(8)-TCDD: the “I50 (inhibits antibody binding by 50%)” value at monoclonal antibody DD-6 was found to be 0.15 ng; at monoclonal antibody DD-1 it was 0.15 ng; at monoclonal antibody DD-4, 0.3 ng; at monoclonal antibody DD-5 it was 0.3 ng; on monoclonal antibody DD-3, 0.45 ng. Moreover, the “concentration at which 50% inhibition occurs (relative ELISA response half of control)” value in the assay with monoclonal antibody DD-1 (FIGURE, DD-1, competitor in saline-BSA, dilution series 100-0.2 ppb) is reported as “about 4 ppb”.
Regarding `Clc1ccc(Cl)c(-c2c(Cl)c(Cl)c(Cl)c(Cl)c2Cl)c1Cl` [2,2',3,3',4,5,6,6'-Octa-CBP], the “I50 (inhibits antibody binding by 50%)” value on monoclonal antibody DD-6 is reported as over 200 ng; on monoclonal antibody DD-1 it was over 200 ng; on monoclonal antibody DD-4, over 200 ng; on monoclonal antibody DD-5, over 10 ng; at monoclonal antibody DD-3, over 200 ng.
As to `ClC1=C(Cl)C2(Cl)C3C(Cl)C(Cl)CC3C1(Cl)C2(Cl)Cl` (stereo not shown) [Chlordane], the “I50 (inhibits antibody binding by 50%)” value on monoclonal antibody DD-6, on monoclonal antibody DD-1, at monoclonal antibody DD-4, at monoclonal antibody DD-5 and at monoclonal antibody DD-3 was over 2000 ng throughout.
For the compound `ClC1=C(Cl)C2(Cl)C3C4CC(C5OC45)C3C1(Cl)C2(Cl)Cl` (stereo not shown) [Endrin], the “I50 (inhibits antibody binding by 50%)” value on monoclonal antibody DD-6, on monoclonal antibody DD-1, at monoclonal antibody DD-4, on monoclonal antibody DD-5 and on monoclonal antibody DD-3 was over 2000 ng each time.
On to `Clc1ccccc1` [Chlorobenzene], for which the “I50 (inhibits antibody binding by 50%)” value at monoclonal antibody DD-6, at monoclonal antibody DD-1, on monoclonal antibody DD-4, on monoclonal antibody DD-5 and at monoclonal antibody DD-3 was over 2000 ng throughout.
For the compound `Clc1ccc2c(c1)Oc1c(Cl)c(Cl)c(Cl)c(Cl)c1O2` [1,2,3,4,7-penta-CDD], the “I50 (inhibits antibody binding by 50%)” value on monoclonal antibody DD-6, on monoclonal antibody DD-1, at monoclonal antibody DD-4 and at monoclonal antibody DD-3 was over 2 ng throughout.
On to `Oc1cc(Cl)c(Cl)cc1Cl` [2,4,5-Trichlorophonol], for which the “I50 (inhibits antibody binding by 50%)” value at monoclonal antibody DD-6 is over 2000 ng; at monoclonal antibody DD-1 it was 800 ng; on monoclonal antibody DD-4, over 2000 ng; on monoclonal antibody DD-5 it was over 2000 ng; on monoclonal antibody DD-3 it was over 2000 ng.
Consider `Clc1ccccc1-c1cc(Cl)c(Cl)c(Cl)c1Cl` [2,2',3,4,5-Penta-CBP], for which the “I50 (inhibits antibody binding by 50%)” value at monoclonal antibody DD-6 is listed as over 200 ng; on monoclonal antibody DD-1 it was over 200 ng; on monoclonal antibody DD-4, over 200 ng; on monoclonal antibody DD-5, over 10 ng; on monoclonal antibody DD-3, over 200 ng.
`OCC(Cl)(Cl)Cl` [2,2,2-Tricholoroethanol, 2,2,2-Tricholoro-ethanol]: the “I50 (inhibits antibody binding by 50%)” value at monoclonal antibody DD-6, at monoclonal antibody DD-1, on monoclonal antibody DD-4, on monoclonal antibody DD-5 and at monoclonal antibody DD-3 was over 2000 ng each time.
As to `O=[N+]([O-])c1c(Cl)ccc2c1Oc1cc(Cl)c(Cl)cc1O2` [1-nitro-2,7,8-TriCDD], the “I50 (inhibits antibody binding by 50%)” value at monoclonal antibody DD-6 was over 0.004 ng; at monoclonal antibody DD-1 it was 0 ng; at monoclonal antibody DD-4, 0.02 ng; at monoclonal antibody DD-3, 0.15 ng.
As for Toxaphene, the “I50 (inhibits antibody binding by 50%)” value at monoclonal antibody DD-6, at monoclonal antibody DD-4, at monoclonal antibody DD-5 and on monoclonal antibody DD-3 was over 2000 ng throughout.
On to `O=C(O)COc1ccc(Cl)cc1Cl` [2,4-Dichlorophenoxyacetic, 2,4-Dichlorophenoxy-acetic], for which the “I50 (inhibits antibody binding by 50%)” value at monoclonal antibody DD-1, at monoclonal antibody DD-4 and at monoclonal antibody DD-3 was over 2000 ng each time.
For the compound `Clc1cc2c(cc1Cl)Oc1c(cc(Cl)c(Cl)c1Cl)O2` [1,2,3,7,8-penta-CDD], the “I50 (inhibits antibody binding by 50%)” value on monoclonal antibody DD-6 was over 0.004 ng; on monoclonal antibody DD-1, 0.2 ng; at monoclonal antibody DD-4 it was 0.02 ng; at monoclonal antibody DD-3 it was 0.15 ng.
